From patent publication US7417156B2, “Orally active, antimalarial, anticancer, artemisinin-derived trioxane dimers” (Johns Hopkins University, priority 2002, dated 2008)

Columns and labels:
Assay in all cases: NCI 60 cell line panel screen (SRB)
Assay type in all cases: cell-based, human
U251 = U251 (CNS Cancer)
MALME-3M = tested on: MALME-3M
M14 = tested on: M14
SK-MEL-2 = tested on: SK-MEL-2
SK-MEL-28 = tested on: SK-MEL-28
IGROVI = tested on: IGROVI
OVCAR-3 = tested on: OVCAR-3
OVCAR-5 = tested on: OVCAR-5
786-0 = tested on: 786-0
TK-10 = tested on: TK-10
UO-31 = tested on: UO-31
PC-3 = tested on: PC-3
HS 578T = tested on: HS 578T
MDA-MB-435 = MDA-MB-435 (Breast Cancer)
T-47D = tested on: T-47D

CC1CCC2C(C)C(CC(COC(=O)CCC(=O)O)CC3OC4OC5(C)CCC6C(C)CCC(C3C)C46OO5)OC3OC4(C)CCC1C32OO4 (stereo not shown) [Compound 8a, bis-trioxane primary succinate monoester]
Log10LC50 (U251; LC50: PG=−50): >−4.30 log10M
Log10TGI50 (U251; TGI: PG=0): >−4.30 log10M
Log10LC50 (MALME-3M; MALME-3M (Melanoma), LC50: PG=−50): >−4.30 log10M
Log10TGI50 (MALME-3M; MALME-3M (Melanoma), TGI: PG=0): −6.82 log10M
Log10GI50 (MALME-3M; Melanoma, MALME-3M): <−8.30
Log10LC50 (M14; M14 (Melanoma), LC50: PG=−50): >−4.30 log10M
Log10TGI50 (M14; M-14 (Melanoma), TGI: PG=0): >−4.30 log10M
Log10GI50 (M14; Melanoma, M14): −6.94
Log10GI50 (SK-MEL-2; Melanoma, SK-MEL-2): −5.12
Log10LC50 (SK-MEL-2; SK-MEL2 (Melanoma), LC50: PG=−50): >−4.30 log10M
Log10TGI50 (SK-MEL-2; SK-MEL-2 (Melanoma), TGI: PG=0): >−4.30 log10M
Log10GI50 (SK-MEL-28; Melanoma, SK-MEL-28): −6.09
Log10LC50 (SK-MEL-28; SK-MEL-28 (Melanoma), LC50: PG=−50): >−4.30 log10M
Log10TGI50 (SK-MEL-28; SK-MEL-28 (Melanoma), TGI: PG=0): >−4.30 log10M
Log10LC50 (IGROVI; IGROVI (Ovarian Cancer), LC50: PG=−50): >−4.30 log10M
Log10TGI50 (IGROVI; IGROVI (Ovarian Cancer), TGI: PG=0): >−4.30 log10M
Log10GI50 (IGROVI; Ovarian Cancer, IGROVI): −5.07
Log10LC50 (OVCAR-3; OVCAR-3 (Ovarian Cancer), LC50: PG=−50): >−4.30 log10M
Log10TGI50 (OVCAR-3; OVCAR-3 (Ovarian Cancer), TGI: PG=0): −8.21 log10M
Log10GI50 (OVCAR-3; Ovarian Cancer, OVCAR-3): <−8.30
Log10LC50 (OVCAR-5; OVCAR-5 (Ovarian Cancer), LC50: PG=−50): >−4.30 log10M
Log10TGI50 (OVCAR-5; OVCAR-5 (Ovarian Cancer), TGI: PG=0): −6.62 log10M
Log10GI50 (OVCAR-5; Ovarian Cancer, OVCAR-5): <−8.30
Log10LC50 (786-0; 786-0 (Renal Cancer), LC50: PG=−50): >−4.30 log10M
Log10TGI50 (786-0; 786-0 (Renal Cancer), TGI: PG=0): >−4.30 log10M
Log10GI50 (786-0; Renal Cancer, 786-0): −6.45
Log10GI50 (TK-10; Renal Cancer, TK-10): −6.92
Log10LC50 (TK-10; TK-10 (Renal Cancer), LC50: PG=−50): >−4.30 log10M
Log10TGI50 (TK-10; TK-10 (Renal Cancer), TGI: PG=0): −4.52 log10M
Log10GI50 (UO-31; Renal Cancer, UO-31): −5.46
Log10LC50 (UO-31; UO-31 (Renal Cancer), LC50: PG=−50): >−4.30 log10M
Log10TGI50 (UO-31; UO-31 (Renal Cancer), TGI: PG=0): >−4.30 log10M
Log10LC50 (PC-3; PC-3 (Prostate Cancer), LC50: PG=−50): >−4.30 log10M
Log10TGI50 (PC-3; PC-3 (Prostate Cancer), TGI: PG=0): >−4.30 log10M
Log10GI50 (PC-3; Prostate Cancer, PC-3): <−8.30
Log10GI50 (HS 578T; Breast Cancer, HS 578T): >−4.30
Log10LC50 (HS 578T; HS 578T (Breast Cancer), LC50: PG=−50): >−4.30 log10M
Log10TGI50 (HS 578T; HS 578T (Breast Cancer), TGI: PG=0): >−4.30 log10M
Log10LC50 (MDA-MB-435; LC50: PG=−50): >−4.30 log10M
Log10TGI50 (MDA-MB-435; TGI: PG=0): >−4.30 log10M
Log10GI50 (T-47D; Breast Cancer, T-47D): <−8.30
Log10LC50 (T-47D; T-47D (Breast Cancer), LC50: PG=−50): >−4.30 log10M
Log10TGI50 (T-47D; T-47D (Breast Cancer), TGI: PG=0): −4.77 log10M
